The source of these data is patent US20260232759A1, “PEPTIDES THAT INHIBIT INFECTION BY SARS-COV-2, THE VIRUS THAT CAUSES COVID-19 DISEASE” (Wisconsin Alumni Research Foundation, priority 2021, published 2026).

The target of one data set is T1, SARS-CoV-2 S (Severe acute respiratory syndrome coronavirus 2, UniProt P0DTC2).
T1 construct: expressed in transfected cells
The data set can be described thus: β-Gal complementation-based cell-cell fusion assay (S-protein-mediated fusion).

A short description of data set [1]: Solubility of the peptides. It is filed as physicochemical.
Where [2] appears, read: IC50, inhibition of S-mediated fusion.

Where two headings read alike, the source gives them in different places. Starred links: 1 amine or outer side, 2 acyl side, 3 side chain; linkers in the order of their positions; H or OH if unused. Non-standard residues stand in square brackets, D forms with d. Residues, ends and D or L forms follow the SMILES beside them. *: point of attachment. X2 = CC(C)CCC[C@@H](C)[C@H]1CC[C@H]2[C@@H]3CC=C4C[C@@H](OC(=O)CCOCCOCCOCCOCCNC(=O)C*)CC[C@]4(C)[C@H]3CC[C@]12C; X1 = O=C([C@H]1CNC[C@@H]1N[*:1])[*:2]; β3hE = N[C@@H](CCC(=O)O)CC(=O)O; β3hQ = NC(=O)CC[C@H](N)CC(=O)O; β3hD = NC(CC(=O)O)CC(=O)O

A word on the IC50: it is the concentration at which inhibition is half-maximal. “Ac-[β3hD]IS[β3hQ]INASVVNIEYEIKKLEEVAKKLEESLI[β3hD]LQ[β3hE]LGSGSGC(X2)-NH2 [D1 Q4 D32 E35]”: on SARS-CoV-2 S (setting [2]), the IC50 is ~50 nM.

With `CC[C@H](C)[C@H](NC(=O)[C@H](C)NC(=O)[C@H](CCC(=O)O)NC(=O)[C@H](CCC(=O)O)NC(=O)[C@H](CC(C)C)NC(=O)[C@H](CCCCN)NC(=O)[C@H](CCCCN)NC(=O)[C@H](CCSC)NC(=O)[C@H](CCC(=O)O)NC(=O)[C@H](Cc1ccc(O)cc1)NC(=O)[C@H](CCC(=O)O)NC(=O)[C@H](CC(C)C)NC(=O)[C@H](CC(=O)O)NC(=O)[C@H](CC(C)C)NC(=O)[C@H](Cc1ccccc1)NC(=O)[C@@H](NC(=O)[C@@H](NC(=O)[C@H](CC(N)=O)NC(=O)[C@@H](NC(=O)[C@H](CCC(N)=O)NC(=O)[C@H](CC(=O)O)NC(=O)[C@H](CC(C)C)NC(=O)[C@@H](N)CO)[C@@H](C)CC)C(C)C)[C@@H](C)O)C(=O)N[C@@H](CCCCN)C(=O)N[C@@H](CCCCN)C(=O)N[C@@H](CC(C)C)C(=O)N[C@@H](CCC(=O)O)C(=O)N[C@@H](CCC(=O)O)C(=O)N[C@@H](CO)C(=O)N[C@@H](Cc1ccc(O)cc1)C(=O)N[C@H](C(=O)N[C@@H](CC(=O)O)C(=O)N[C@@H](CC(C)C)C(=O)N[C@@H](CCCCN)C(=O)N[C@@H](CCC(=O)O)C(=O)N[C@@H](CC(C)C)C(N)=O)[C@@H](C)CC` [EK1], the “solubility (in words)” value in data set [1] is on record as “improved solubility”.

Turning to `CC[C@H](C)[C@H](NC(=O)[C@H](CCC(N)=O)NC(=O)[C@H](CO)NC(=O)[C@@H](NC(=O)[C@@H](N)CC(=O)O)[C@@H](C)CC)C(=O)N[C@@H](CC(N)=O)C(=O)N[C@@H](C)C(=O)N[C@@H](CO)C(=O)N[C@H](C(=O)N[C@H](C(=O)N[C@@H](CC(N)=O)C(=O)N[C@H](C(=O)N[C@@H](CCC(=O)O)C(=O)N[C@@H](Cc1ccc(O)cc1)C(=O)N[C@@H](CCC(=O)O)C(=O)N[C@H](C(=O)N[C@@H](CCCCN)C(=O)N[C@@H](CCCCN)C(=O)N[C@@H](CC(C)C)C(=O)N[C@@H](CCC(=O)O)C(=O)N[C@@H](CCC(=O)O)C(=O)N[C@H](C(=O)N[C@@H](C)C(=O)N[C@@H](CCCCN)C(=O)N[C@@H](CCCCN)C(=O)N[C@@H](CC(C)C)C(=O)N[C@@H](CCC(=O)O)C(=O)N[C@@H](CCC(=O)O)C(=O)N[C@@H](CO)C(=O)N[C@@H](CC(C)C)C(=O)N[C@H](C(=O)N[C@@H](CC(=O)O)C(=O)N[C@@H](CC(C)C)C(=O)N[C@@H](CCC(N)=O)C(=O)N[C@@H](CCC(=O)O)C(=O)N[C@@H](CC(C)C)C(N)=O)[C@@H](C)CC)C(C)C)[C@@H](C)CC)[C@@H](C)CC)C(C)C)C(C)C` [Peptide 1] (H-DISQINASVVNIEYEIKKLEEVAKKLEESLIDLQEL-NH2; N-terminus and C-terminus assumed), the “solubility (in words)” value in data set [1] is reported as “improved solubility”.

On to “Ac-[β3hD]IS[β3hQ]INASVVNIEYEIKKLEEVAKKLEESLI[β3hD]L[β3hQ]ELGSGSGC(X2)-NH2 [D1 Q4 D32 Q34]”, for which the IC50 against SARS-CoV-2 S (setting [2]) is ~10 nM.

Turning to “Ac-DISQINASVVNIEYEI[X1]KLE[β3hE]VA[X1]KLE[β3hE]SLIDLQELGSGSGC(X2)-NH2 [Bf APC/B3E]”, the IC50 on SARS-CoV-2 S ([…], cell-cell fusion assay, peptides with poly(ethylene glycol)-cholesterol tail, read-out: IC50, inhibition of S-mediated fusion) is ~50 nM.
